Where two headings read alike, the source gives them in different places.
How the values were obtained:
[1] = test system: apomorphine-induced climbing; assay: climbing mice assay (antagonism of apomorphine-induced climbing; antipsychotic activity); assay type: in vivo, CK-1 male mice; details: Mus musculus, ip, read-out: Antipsychotic Activity ED50
Protocol: The subject CK-1 male mice (23-27 grams) are group-housed under standard laboratory conditions. The mice are individually placed in wire mesh stick cages (4"×4" by 10") and are allowed one hour for adaptation and exploration of the new environment. […] For evaluation of climbing, 3 readings are taken at 10, 20 and 30 minutes after apomorphine administration according to the following scale: Mice consistently climbing before the injection of apormorphine are discarded. With full-developed apomorphine climbing, the animals are hanging onto the cage wails, rather motionless, over longer periods of time. By contrast, climbs due to mere motor stimulation usually only last a few seconds. The climbing scores are individually totaled (maximal score; 6 per mouse over 3 readings) and the total score of the control group (vehicle intraperitioneally-apomorphine subcutaneously) is set to 100%.

[2] = test system: apomorphine-induced stereotypy; assay: antagonism of apomorphine-induced stereotypy; assay type: in vivo, male Wistar rats; details: apomorphine 1.5 mg/kg s.c., rats
Protocol: Antagonism of apomorphine-induced stereotypy is a property of many antipsychotics. […] Antagonism of apomorphine-induced stereotypy of the present 2-(4-piperidinyl)-1H-pyrido[4,3-b]indol-1-ones is determined by methods similar to those described by N. E. Anden, et al., J. Pharma.
Drugs are prepared using distilled water and, if insoluble, a suitable surfactant is added. The route of administration may be varied and the dosage volume is 10 ml/kg. For a primary screen, a group size of six is used. Drug is administered one hour prior to scoring and the animals are placed in individual clear plastic cages (24×14×13 cm). The control group receives vehicle. Apomorphine hydrochloride solution is prepared at a concentration of 1.5 mg/10 ml in a 0.03% ascorbic acid stock solution (30 mg of ascorbic acid in 100 ml of 1% saline) to increase the stability of the apomorphine hydrochloride while in solution. […] Fifty minutes after drug dosing, stereotypic behavior is noted. Stereotypic activity is defined as sniffing, licking or chewing behavior that occurs in a repetitive manner and is rated as follows: Constant sniffing, licking or chewing without interruption; the animal is considered protected if this behavior is interrupted.
The percent effectiveness of a drug is determined by the number of animals protected in each group.
A dose-response is run in the same manner as a primary screen except that a group size of 10 is used and the animals are dosed in a randomized manner. One group receives vehicle. ED50 for stereotypy are calculated by means of probit analysis.

[3] = 30 min before apomorphine 1.5 mg/kg s.c., mice, linear regression

SMILES	ED50 [1, 3]	% Inhibition of Apomorphine-Induced Stereotypy ([2]; dose 24 mg/kg ip)	% Inhibition of Apomorphine-Induced Stereotypy ([2]; dose 38 mg/kg ip)	ED50 [1]	% Inhibition of Apomorphine-Induced Stereotypy ([2]; dose 0.2 mg/kg ip)
Cl.Cn1c2c(c3ccccc31)C(=O)N(C1CCN(Cc3ccccc3)CC1)CC2 [5-Methyl-2-[1-(phenylmethyl)-4-piperidinyl]-2,3,4,5-tetrahydro-1H-pyrido[4,3-b]-indole-1-one hydrochloride]	4.6 mg/kg	50%	–	–	–
CSc1ccc2c(c1)N(CCC1CCCCN1C)c1ccccc1S2 (stereo not drawn) [thioridazine]	3.6 mg/kg	–	50%	–	–
O=C(CCCN1CCC(O)(c2ccc(Cl)cc2)CC1)c1ccc(F)cc1 [haloperidol]	–	–	–	0.14 mg/kg	50%
